Experimental data reported in paper PMC10249086, “Novel N-Acyl Hydrazone Compounds as Promising Anticancer Agents: Synthesis and Molecular Docking Studies” (ACS Omega, 2023).

Key:
[1] = test system: MCF-7 breast cancer cells; experiment: MTT cytotoxicity assay, MCF-7; settings: for IC50: Homo sapiens, MCF7, 48 h, read-out: IC50 MCF-7; for selectivity index (SI) for MCF-7: ratio of IC50 values, MCF-7 and ME-16C
Experimental: (§1) In this work, cells were treated with the compounds at concentrations ranging from 1 to 1000 M for 48 h in order to evaluate the in vitro cytotoxic effects on cancer (MCF-7, PC-3) and normal (ME-16C) cell lines.
(§2) Human breast cancer (MCF-7; ATCC Number: HTB-22), prostate cancer (PC-3; ATCC Number: CRL-1435), and breast epithelial (ME-16C; ATCC Number: CRL: 4101) cell lines were procured from American Type Culture Collection (ATCC Distributor: LGC Standards, Wessel, Germany) to be used in the cytotoxic activity assays. Cells were detached with a 0.25% Trypsin/EDTA solution upon 70–80% confluency and seeded into a new culture flask including DMEM-LG with 10% FBS and 0.1 mg/mL primocin, incubated in a 37 °C, 5% CO2 incubator. The medium was refreshed every 48 h, and the cells were passaged every 5–6 days.
(§3) Newly synthesized compounds were tested for their cytotoxic activity on cancer (MCF-7, PC-3) and normal (ME-16C) cell lines using the MTT assay. MTT is used to assess cell viability by determining the mitochondrial activity of living cells according to their ability to reduce the yellow tetrazolium salt MTT into purple formazan crystals. The MTT assay (Thermo) was carried out according to the manufacturer’s instructions. Briefly, cells were seeded on 96-well plates at a density of 1 × 10^4 cells/well and incubated in a 37 °C, 5% CO2 incubator. Cells were then treated with different concentrations (1–1000 μM) of compounds for 48 h. Following incubation, 10 μL of MTT solution was added to the cells and incubated for 4 h, and then 100 μL of solubilization solution was added and incubated overnight. Absorbance was measured at 570 nm using the microplate reader (Synergy H1, Biotek). […] All the experiments were performed three times, and each was carried out in triplicate.

[2] = test system: PC-3 prostate cancer cells; experiment: MTT cytotoxicity assay, PC-3; settings: for IC50: Homo sapiens, 48 h, read-out: IC50 PC-3; for selectivity index (SI) for PC-3: ratio of IC50 values, PC-3 and ME-16C
Experimental: as §1, §2, §3

[3] = test system: ME-16C breast epithelial cells; experiment: MTT cytotoxicity assay, ME-16C normal cells; settings: for IC50: read-out: IC50 ME-16C, normal breast epithelial cells, MTT, 48 h, 1–1000 μM; for cytotoxic effect in ME-16C cells: in the tested range of concentrations
Experimental: as §1, §2, §3

| Structure (SMILES) | melting point [°C] | IC50 [1] [µM] | IC50 [2] [µM] | IC50 [3] [µM] | cytotoxic effect in ME-16C cells [3] | selectivity index (SI) for MCF-7 [1] | selectivity index (SI) for PC-3 [2] | cytotoxic effect on ME-16C cells ([3]; at the same concentration as the IC50 in cancer cells) |
| --- | --- | --- | --- | --- | --- | --- | --- | --- |
| COc1ccc(C=NNC(=O)CCCC(=O)c2ccc(Cl)cc2)cc1 [Compound 7b] | 121 to 122.5 | 10.3 ± 0.63 | 15 ± 0.4 | 158 ± 1.9 |  |  |  |  |
| CC(C)CC=NNC(=O)CCCC(=O)c1ccccc1 [Compound 9a] |  | 120 ± 1.87 |  |  |  |  |  |  |
| COc1ccc(C(=O)CCCC(=O)NN=CCC(C)C)cc1 [Compound 9d] |  | 116 ± 2.7 | 152.1 ± 0.75 |  |  |  |  |  |
| COc1cccc2c1C(=O)c1c(O)c3c(c(O)c1C2=O)C[C@@](O)(C(=O)CO)C[C@@H]3O[C@H]1C[C@H](N)[C@H](O)[C@H](C)O1 [doxorubicin, reference compound] |  | 0.83 ± 0.07 | 0.75 ± 0.04 | 0.8 ± 0.09 |  |  |  |  |
| CC(C)CC=NNC(=O)CCCC(=O)c1cccs1 [Compound 9e] |  | 100 ± 1.39 | 125.5 ± 1.1 |  |  |  |  |  |
| Cc1ccc(C(=O)CCCC(=O)NN=CCC(C)C)cc1 [Compound 9c] |  | 95.02 ± 0.76 | 106 ± 3.7 |  |  |  |  |  |
| COc1ccc(/C=N/NC(=O)CCCC(=O)c2ccccc2)cc1 [Compound 7a] | 199 to 200 | 25.4 ± 0.82 | 57.3 ± 0.92 | 545.3 ± 0.75 |  |  |  |  |
| CC(C)CC=NNC(=O)CCCC(=O)c1ccc(Cl)cc1 [Compound 9b] |  | 210 ± 3.14 | 276 ± 5.9 |  |  |  |  |  |

Now from value to molecule, other results behind:

| melting point [°C] | Structure (SMILES) | IC50 [1] [µM] | IC50 [2] [µM] | IC50 [3] [µM] | cytotoxic effect in ME-16C cells [3] | selectivity index (SI) for MCF-7 [1] | selectivity index (SI) for PC-3 [2] | cytotoxic effect on ME-16C cells ([3]; at the same concentration as the IC50 in cancer cells) |
| --- | --- | --- | --- | --- | --- | --- | --- | --- |
| 133.5 to 134.5 | Cc1ccc(C(=O)CCCC(=O)NN=Cc2ccco2)cc1 [Compound 8c] | 471.5 ± 0.57 | 510.1 ± 1.1 | 480.5 ± 2.05 |  |  |  |  |
| 144 to 145 | COc1ccc(C(=O)CCCC(=O)NN=Cc2ccco2)cc1 [Compound 8d] | 510.2 ± 2.88 | 454.7 ± 2.31 |  | did not cause any cytotoxic effect |  |  |  |
| 130 to 131 | COc1ccc(C=NNC(=O)CCCC(=O)c2cccs2)cc1 [Compound 7e] | 12.5 ± 0.84 | 10.8 ± 0.71 | 672.2 ± 2.69 |  | 53.60 | 62.18 |  |
| 154 to 155 | COc1ccc(C=NNC(=O)CCCC(=O)c2ccc(OC)cc2)cc1 [Compound 7d] | 7.52 ± 0.32 | 10.2 ± 0.52 | 250.4 ± 1.88 |  | 33.30 | 24.57 | no cytotoxic effect |
| 133 to 134 | COc1ccc(C=NNC(=O)CCCC(=O)c2ccc(C)cc2)cc1 [Compound 7c] | 9.25 ± 0.54 | 12.6 ± 0.67 | 227.7 ± 1.76 |  |  |  |  |
| 132 to 133 | O=C(CCCC(=O)c1ccc(Cl)cc1)NN=Cc1ccco1 [Compound 8b] | 50.8 ± 0.63 | 52 ± 0.88 |  | did not cause any cytotoxic effect |  |  |  |
| 121 to 122 | O=C(CCCC(=O)c1cccs1)NN=Cc1ccco1 [Compound 8e] | 490.7 ± 3.49 | 500.5 ± 2.83 |  | did not cause any cytotoxic effect |  |  |  |
| 119 to 120 | O=C(CCCC(=O)c1ccccc1)NN=Cc1ccco1 [Compound 8a] | 11 ± 1.21 | 26.6 ± 0.92 | 471.8 ± 2.98 |  |  |  |  |
